pKi: −log10 of the molar value. Structures can show the parent of a compound that is named as a salt.
biological target: HPK full length, T165E S171E (Homo sapiens (Human), UniProt Q92918, S171E/T165E); assay: HPK1-FL HTRF enzymatic assay ("HTRF"); type: biochemical; details: ATP 1 mM, read-out: HPK1 Ki
Method in brief: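 HTRF detection of phosphorylated biotin-SLP-76 used Eu-anti-pSLP76 antibody and SA-XL665, read after 60 min. The kinase reaction ran 60 min at […], following a 30-min compound preincubation with the full-length enzyme.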

Sequence of HPK full length, T165E S171E (Q92918 whole entry T165E/S171E, looked up): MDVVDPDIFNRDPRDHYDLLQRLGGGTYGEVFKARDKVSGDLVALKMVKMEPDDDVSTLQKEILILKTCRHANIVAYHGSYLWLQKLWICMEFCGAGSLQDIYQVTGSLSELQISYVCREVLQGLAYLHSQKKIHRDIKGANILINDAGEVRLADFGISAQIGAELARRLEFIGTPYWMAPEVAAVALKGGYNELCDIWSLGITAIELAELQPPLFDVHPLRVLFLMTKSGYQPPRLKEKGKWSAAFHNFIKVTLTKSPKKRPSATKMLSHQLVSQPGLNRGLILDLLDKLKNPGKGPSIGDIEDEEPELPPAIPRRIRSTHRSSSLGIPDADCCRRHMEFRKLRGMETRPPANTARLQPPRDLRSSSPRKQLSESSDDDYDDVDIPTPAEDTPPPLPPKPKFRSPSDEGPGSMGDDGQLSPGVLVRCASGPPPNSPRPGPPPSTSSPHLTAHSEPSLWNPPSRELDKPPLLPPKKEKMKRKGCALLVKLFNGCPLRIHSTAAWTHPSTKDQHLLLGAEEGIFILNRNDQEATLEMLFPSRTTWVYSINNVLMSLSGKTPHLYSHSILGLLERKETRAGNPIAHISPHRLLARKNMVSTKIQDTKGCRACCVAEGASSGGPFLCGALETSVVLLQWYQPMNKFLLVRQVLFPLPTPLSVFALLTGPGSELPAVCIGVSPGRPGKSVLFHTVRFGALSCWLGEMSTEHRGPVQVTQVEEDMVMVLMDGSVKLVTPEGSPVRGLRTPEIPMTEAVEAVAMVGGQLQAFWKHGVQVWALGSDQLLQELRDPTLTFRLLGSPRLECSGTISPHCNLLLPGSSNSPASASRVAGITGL

Q: With `Cc1c(-c2cc3cc(NC(=O)OC4CCN(C)CC4(C)C)ncc3c(N)c2F)cnc2c1NCCO2` (stereo not drawn) [Compound 435, (1,3,3-Trimethyl-4-piperidyl) N-[8-amino-7-fluoro-6-(8-methyl-2,3-dihydro-1H-pyrido[2,3-b][1,4]oxazin-7-yl)-3-isoquinolyl]carbamate] as the compound, how does the pKi read?
A: 9.73

Q: `Cc1c(-c2cc3cc(NC(=O)OC(C)C)ncc3c(N)c2F)cnc2c1NCCO2` [Compound 436, Isopropyl (8-amino-7-fluoro-6-(8-methyl-2,3-dihydro-1H-pyrido[2,3-b][1,4]oxazin-7-yl)isoquinolin-3-yl)carbamate] was tested. Which pKi did it give?
A: 10.85

Q: `Cc1c(-c2cc3cc(NC(=O)OC4CC5(C4)CN(C4COC4)C5)ncc3c(N)c2F)cnc2c1NCCO2` [Compound 443, 2-(Oxetan-3-yl)-2-azaspiro[3.3]heptan-6-yl (8-amino-7-fluoro-6-(8-methyl-2,3-dihydro-1H-pyrido[2,3-b][1,4]oxazin-7-yl)isoquinolin-3-yl)carbamate] was tested. Which pKi did it give?
A: > 10.89

Q: `Cc1c(-c2cc3cc(NC(=O)O[C@@H]4CCN(C5COC5)C[C@@H]4F)ncc3c(N)c2F)cnc2c1NCCO2` [Compound 445c, (3S,4R)-3-Fluoro-1-(oxetan-3-yl)piperidin-4-yl (8-amino-7-fluoro-6-(8-methyl-2,3-dihydro-1H-pyrido[2,3-b][1,4]oxazin-7-yl)isoquinolin-3-yl)carbamate] was tested. Which pKi did it give?
A: 10.82

Q: `Cc1c(-c2cc3cc(NC(=O)O[C@H]4CCN(C5COC5)C[C@H]4F)ncc3c(N)c2F)cnc2c1NCCO2` [Compound 445d, (3R,4S)-3-Fluoro-1-(oxetan-3-yl)piperidin-4-yl (8-amino-7-fluoro-6-(8-methyl-2,3-dihydro-1H-pyrido[2,3-b][1,4]oxazin-7-yl)isoquinolin-3-yl)carbamate] was tested. Which pKi did it give?
A: > 10.89

Q: With `Cc1c(-c2cc3cc(NC(=O)O[C@H]4C[C@H](N(C)C)C4)ncc3c(N)c2F)cnc2c1NCCO2` [Compound 447a, (1r,3r)-3-(Dimethylamino)cyclobutyl (8-amino-7-fluoro-6-(8-methyl-2,3-dihydro-1H-pyrido[2,3-b][1,4]oxazin-7-yl)isoquinolin-3-yl)carbamate hydrochloride] as the compound, how does the pKi read?
A: > 10.89

Q: `Cc1c(-c2cc3cc(NC(=O)OCC4(F)CN(C)C4)ncc3c(N)c2F)cnc2c1NCCO2` [Compound 450, (3-Fluoro-1-methyl-azetidin-3-yl)methyl N-[8-amino-7-fluoro-6-(8-methyl-2,3-dihydro-1H-pyrido[2,3-b][1,4]oxazin-7-yl)-3-isoquinolyl]carbamate] was tested. Which pKi did it give?
A: 9.89

Q: With `Cc1c(-c2cc3cc(NC(=O)O[C@H]4CN(C)C[C@@H]4F)ncc3c(N)c2F)cnc2c1NCCO2` [Compound 452a, (3S,4S)-4-Fluoro-1-methylpyrrolidin-3-yl (8-amino-7-fluoro-6-(8-methyl-2,3-dihydro-1H-pyrido[2,3-b][1,4]oxazin-7-yl)isoquinolin-3-yl)carbamate] as the compound, how does the pKi read?
A: 10.52

Q: With `Cc1c(-c2cc3cc(NC(=O)O[C@H]4CN(C)C[C@H]4F)ncc3c(N)c2F)cnc2c1NCCO2` [Compound 452c, (3S,4R)-4-Fluoro-1-methylpyrrolidin-3-yl (8-amino-7-fluoro-6-(8-methyl-2,3-dihydro-1H-pyrido[2,3-b][1,4]oxazin-7-yl)isoquinolin-3-yl)carbamate] as the compound, how does the pKi read?
A: 9.77

Q: How did the pKi turn out when `Cc1c(-c2cc3cc(NC(=O)OC4CN(C)CCN(C)C4)ncc3c(N)c2F)cnc2c1NCCO2` [Compound 465, 1,4-Dimethyl-1,4-diazepan-6-yl (8-amino-7-fluoro-6-(8-methyl-2,3-dihydro-1H-pyrido[2,3-b][1,4]oxazin-7-yl)isoquinolin-3-yl)carbamate] was run?
A: 9.34

Q: How did the pKi turn out when `COCCN1CC(OC(=O)Nc2cc3cc(-c4cnc5c(c4C)NCCO5)c(F)c(N)c3cn2)C1` [Compound 474, 1-(2-Methoxyethyl)azetidin-3-yl (8-amino-7-fluoro-6-(8-methyl-2,3-dihydro-1H-pyrido[2,3-b][1,4]oxazin-7-yl)isoquinolin-3-yl)carbamate] was run?
A: 10.22

Q: With `Cc1c(-c2cc3cc(NC(=O)O[C@@H]4COC[C@H]4F)ncc3c(N)c2F)cnc2c1NCCO2` [Compound 477a, (3R,4R)-4-Fluorotetrahydrofuran-3-yl (8-amino-7-fluoro-6-(8-methyl-2,3-dihydro-1H-pyrido[2,3-b][1,4]oxazin-7-yl)isoquinolin-3-yl)carbamate] as the compound, how does the pKi read?
A: 10.47

Q: `Cc1c(-c2cc3cc(NC(=O)O[C@H]4COC[C@H]4F)ncc3c(N)c2F)cnc2c1NCCO2` [Compound 477c, (3S,4R)-4-Fluorotetrahydrofuran-3-yl (8-amino-7-fluoro-6-(8-methyl-2,3-dihydro-1H-pyrido[2,3-b][1,4]oxazin-7-yl)isoquinolin-3-yl)carbamate] was tested. Which pKi did it give?
A: 9.82

Q: `Cc1c(-c2cc3cc(NC(=O)O[C@H]4C[C@@H](C#N)C4)ncc3c(N)c2F)cnc2c1NCCC2` [Compound 483a, (1s,3s)-3-Cyanocyclobutyl (8-amino-7-fluoro-6-(4-methyl-5,6,7,8-tetrahydro-1,5-naphthyridin-3-yl)isoquinolin-3-yl)carbamate] was tested. Which pKi did it give?
A: > 10.89

Q: `Cc1c(-c2cc3cc(NC(=O)O[C@H]4C[C@@H](C#N)C4)ncc3c(N)c2F)cnc2c1NCCO2` [Compound 484a, (1s,3s)-3-Cyanocyclobutyl (8-amino-7-fluoro-6-(8-methyl-2,3-dihydro-1H-pyrido[2,3-b][1,4]oxazin-7-yl)isoquinolin-3-yl)carbamate] was tested. Which pKi did it give?
A: > 10.89

Q: `Cc1c(-c2cc3cc(NC(=O)O[C@H]4C[C@@H](O)C4)ncc3c(N)c2F)cnc2c1NCCO2` [Compound 485a, (1s,3s)-3-Hydroxycyclobutyl (8-amino-7-fluoro-6-(8-methyl-2,3-dihydro-1H-pyrido[2,3-b][1,4]oxazin-7-yl)isoquinolin-3-yl)carbamate] was tested. Which pKi did it give?
A: > 10.89

Q: How did the pKi turn out when `Cc1c(-c2cc3cc(NC(=O)O[C@H]4C[C@H](O)C4)ncc3c(N)c2F)cnc2c1NCCO2` [Compound 485b, (1r,3r)-3-Hydroxycyclobutyl (8-amino-7-fluoro-6-(8-methyl-2,3-dihydro-1H-pyrido[2,3-b][1,4]oxazin-7-yl)isoquinolin-3-yl)carbamate] was run?
A: > 10.89

Q: How did the pKi turn out when `Cc1c(-c2cc3cc(NC(=O)O[C@H]4C[C@](C)(O)C4)ncc3c(N)c2F)cnc2c1NCCO2` [Compound 486b, (1r,3r)-3-Hydroxy-3-methylcyclobutyl (8-amino-7-fluoro-6-(8-methyl-2,3-dihydro-1H-pyrido[2,3-b][1,4]oxazin-7-yl)isoquinolin-3-yl)carbamate] was run?
A: 10.74

Q: `Cc1c(-c2cc3cc(NC(=O)OC4CCC4)ncc3c(N)c2F)cnc2c1NCCO2` [Compound 487, Cyclobutyl (8-amino-7-fluoro-6-(8-methyl-2,3-dihydro-1H-pyrido[2,3-b][1,4]oxazin-7-yl)isoquinolin-3-yl)carbamate] was tested. Which pKi did it give?
A: > 10.89

Q: `CCC(=O)N1CC(OC(=O)Nc2cc3cc(-c4cnc5c(c4C)NCCC5)c(F)c(N)c3cn2)C1` [Compound 492, 1-Propionylazetidin-3-yl (8-amino-7-fluoro-6-(4-methyl-5,6,7,8-tetrahydro-1,5-naphthyridin-3-yl)isoquinolin-3-yl)carbamate] was tested. Which pKi did it give?
A: 10.26

same assay, conditions: HPK1 Ki, ATP 1 mM

Q: `Cc1c(-c2cc3cc(NC(=O)O[C@@H]4CN(C)C[C@H]4F)ncc3c(N)c2F)cnc2c1NCCO2` [Compound 452b, (3R,4R)-4-Fluoro-1-methylpyrrolidin-3-yl (8-amino-7-fluoro-6-(8-methyl-2,3-dihydro-1H-pyrido[2,3-b][1,4]oxazin-7-yl)isoquinolin-3-yl)carbamate] was tested. Which pKi did it give?
A: 10.44

From patent US11612606B2, “8-aminoisoquinoline compounds and uses thereof” (priority 2018, dated 2023)
